Measured values from a melting point compilation (Tetko et al.; mined from patent text by program, amines drawn as free bases though some values may be those of a salt).

Row | melting point [°C] | Structure (SMILES)
1 | 120 | CCN(CC)C1=NN(Nc2ccc3nc(C)cc(N)c3c2)NC(Cl)=C1
2 | 152 to 153 | COC(=O)c1ccc(CN2CCOc3ccc(NC(=O)CC4CCCC4)cc32)c(OC)c1
3 | 236 to 238 | Cc1c(C#N)oc2c(-c3ccc(F)cc3)c(-c3ccc(S(C)(=O)=O)cc3)nn12
4 | 191 to 192 | Cc1ccc(NC(=O)N2CC(Oc3cccc(C(F)(F)F)c3)C2)cc1
5 | 280 to 283 | O=c1nc(Nc2ccc(C(F)(F)F)cc2)sc2ncccc12
6 | 60 to 62 | Cc1c(SCc2ccco2)ccnc1CO
7 | 78 to 79 | CCOP(=O)(CNc1cc(Oc2ccc(C(F)(F)F)cc2Cl)ccc1[N+](=O)[O-])OCC
8 | 152 to 155 | COc1ccc(N2CCN(c3c(C)c(C)c4c(c3C)CC(C)(C)O4)CC2)cc1
9 | 202 | O=C(c1cccc(F)c1)N1CCc2cc(S(=O)(=O)N3CC(c4ccccc4)NC3=O)ccc21 (stereo not given)
10 | 155 to 161 | NC(=NO)c1ccc(I)cc1
11 | 129 to 130 | COc1ccc(NC(C)=O)cc1OC(F)F
12 | 224 to 225 | NC(=O)Nc1n[nH]c(-c2ccncc2)c1-c1ccc(F)cc1
13 | > 300 | CCCC(CCNC(=O)C(C#N)=Cc1cc(O)c(O)c(O)c1)NC(=O)C(C#N)=Cc1cc(O)c(O)c(O)c1 (stereo not given)
14 | 102 to 105 | CC(C)c1cc(-c2cc(C(=O)Cl)ccc2S(C)(=O)=O)on1
15 | 207 to 208 | O=[N+]([O-])c1cn2c(n1)O[C@@H](CN1CCN(Cc3ccc(-c4ccccc4)cc3)CC1)C2
16 | 152 to 157 | COCC(=O)Nc1nc(N)nc(NC2CC2)n1
17 | 132 to 134 | CCCN1NC(c2ccc(OC)cc2)C2=C1C(=Cc1ccc(OC)cc1)CSC2 (stereo not given)
18 | 140 to 144 | COc1ccc(C(C)N(C)CCCOc2ccc(S(=O)(=O)c3c(C(C)C)cn4ccccc34)cc2)cc1 (stereo not given)
19 | 101 to 104 | COC(=O)c1cc(-c2ccc(OC)c(Cl)c2)nn(CC2CC2)c1=O
20 | 221 to 222 | CCC(CC)(COc1nn2nc(C)nc2cc1C)CS(N)(=O)=O
21 | 200 to 202 | COC1CCCN(Nc2nc(Cl)nc3c2ncn3C2OC(CCl)C(O)C2O)C1 (stereo not given)
22 | 96 to 97 | c1ccc(NCP2CN(c3ccccc3)CN(c3ccccc3)C2)cc1
23 | 202 to 204 | Cc1oc2ccc(N)cc2c(=O)c1C
24 | 68 to 72 | CO/C=C(/C(=O)OC)c1ccccc1/C=C(\Cl)OC(=O)C1=C(c2ccccc2)S(=O)(=O)C(c2ccccc2)C1=O (stereo not given)
25 | 57 to 58 | CCCCCCc1ccc(CCCCC(NC(C)=O)(C(=O)OCC)C(=O)OCC)cc1
26 | 129 to 131 | O=c1cnc(-c2ccccc2)nn1CC(F)(F)F
27 | 177 to 178 | CCNC(=O)NCc1ccc(/C=C/C(c2cc(Cl)cc(Cl)c2)C(F)(F)F)cc1Cl (stereo not given)
28 | 137 | COc1ccc(CNc2nc(CCCCCCC(=O)O)nc3sc(Cl)cc23)cc1Cl
29 | 82 to 85 | Cc1ccc2c(OCCCl)c3ccccc3c(OCCCl)c2c1
30 | 76 to 80 | Cc1cccc(NC(=O)NCC(=O)N(CC(=O)N(CC(=O)OC(C)(C)C)c2ccccc2)c2ccccc2)c1

Continued, compound first:

Row | Structure (SMILES) | melting point [°C]
31 | Cc1nc2c(s1)-c1nc(NC(=O)c3ccccc3)ncc1CC2 | 229 to 231
32 | Oc1cc2ccccc2cc1OCCOc1ccccc1 | 141 to 142
33 | CC(=O)Nc1nc(C)c(S(=O)(=O)N(C)CCO)s1 | 189
34 | N#Cc1nn(-c2c(Cl)cc(C(F)(F)F)cc2Cl)cc1C1C=CCCCC1 (stereo not given) | 106 to 107
35 | CC(C)(C)OC(=O)[C@@H]1C[C@H](c2ccccc2)CN1 | 62
36 | CC1(C)NC(=S)C1(C)C | 117 to 118
37 | CC(C)(C)c1ccc(CCC(C=O)CC2CCCCC2)cc1NC(=O)CC1c2ccccc2Oc2ccccc21 (stereo not given) | 117 to 118
38 | O=c1[nH]cnc2cccnc12 | 343 to 345
39 | N=C(NO)C1=Cc2cc(O)c(O)cc2CC1 | 183 to 185
40 | CN1C(=O)C(NC(=O)Nc2ccccc2)N=C(c2ccccc2)c2ccccc21 (stereo not given) | 260 to 261
41 | O=[N+]([O-])c1cc(Br)ccc1Nc1cccc(-n2ccnc2)n1 | 194 to 195
42 | COC1CC=C(c2ccc(C(C)=O)cc2)CC1 (stereo not given) | 40 to 42
43 | CCOCc1nc2c(N)nc3cc(-n4cccn4)ccc3c2n1CCCOC | 159 to 160
44 | CCOC(=O)Nc1cc2c(cc1F)nc(C(F)(F)F)n2Cc1cccc(Cl)c1 | 144 to 146
45 | Oc1ccc(Nc2nc(NCc3ccco3)nc(-n3ccnc3)n2)cc1 | 244 to 246
46 | CC(=O)Nc1cc(C(F)(F)F)cc(C(F)(F)F)c1[N+](=O)[O-] | 190 to 192
47 | Cc1cc(-c2cnn3c(C(F)(F)F)cc(-c4ccc(C(F)(F)F)c(C(F)(F)F)c4)nc23)ccn1 | 223
48 | Nc1nc(-c2cccnc2)c(Cl)s1 | 202
49 | OC[C@@H]1CC[C@H]2CN(c3ncccn3)CCN2C1 (relative stereo) | 135 to 136
50 | CC(C)Oc1ccccc1-c1ncc(C(=O)O)c(=O)[nH]1 | 191 to 193
51 | CN1CCC(c2[nH]c(=O)c3ccccc3c2-c2ccc(F)cc2)CC1 | 269 to 271
52 | O=c1[nH]cc2c(c1-c1ccc(O)cc1)Nc1ccccc1S2 | > 300
53 | N#CCC(=O)Nc1cc(Cl)c(Cl)cc1[N+](=O)[O-] | 156 to 158
54 | COC(=O)c1ccc(O)cc1NC(=O)c1ccc(C(C)(C)C)cc1 | 146 to 148

Row | Structure (SMILES) | melting point [°C]
55 | CC(=O)Nc1ccc(Cl)cc1C(=O)c1ccccc1 | 114
56 | CCn1nc(C)c2c1C(=O)NCC(c1ccc(NS(=O)(=O)c3ccccc3S(=O)(=O)c3ccccc3)cc1)=N2 | > 230
57 | Cc1noc(NS(=O)(=O)c2ccccc2-c2ccc(-c3ncco3)cc2CNC(C)C(F)(F)F)c1C (stereo not given) | 60 to 70
58 | COc1ccc(-n2nc(NC(=O)N(C)C)cc2-c2ccc(OCCNC(N)=O)cc2)cc1 | 193 to 196
59 | COc1ccc(-c2cc(=O)c3cc(OCCCCCCN4CCC(O)CC4)ccc3o2)cc1 | 134 to 135
60 | C=C(Cl)CSC(=S)Nc1ccc(Cl)cc1C | 88 to 90.5
61 | NC(=O)c1ccc(Cn2ccc(OCc3ccc(F)cc3F)c(Br)c2=O)cc1 | 235 to 238
62 | CC(C)Oc1nc(N)nc2ccc(-c3ccc(F)cc3)nc12 | 191 to 192
63 | Clc1ccc2c(c1)C(c1ccccc1)NC1=NCCN12 (stereo not given) | 210 to 213
64 | CCCCN(C1CCCOc2ccccc21)S(C)(=O)=O (stereo not given) | 78 to 79
65 | CCOC(=O)[C@@H](O)[C@@H]1OC(=O)c2c(OC)cc(OC)cc21 | 154 to 156
66 | CCOC(=O)c1nn(-c2ccccc2Cl)c(=O)c(C#N)c1C | 93 to 95
67 | CCN(CC)CC(O)CNC(=O)c1c(OC)c2cc(C)ccc2n1-c1ccccc1 (stereo not given) | 126 to 128
68 | COc1ccc(Nc2cc(Cl)ccc2[N+](=O)[O-])cc1 | 98
69 | COc1cc2ncnc(N3CCc4cc(C)ccc43)c2cc1OC | 180 to 181
70 | COC(=O)C1CCN(c2ccc3nc4[nH]c(=O)[nH]c4cc3c2)CC1 | > 310
71 | Oc1c(CC2CCCCC2)ccc2ccccc12 | 53 to 56
72 | Cc1cccc2c1[nH]c1c(C(=O)O)cccc12 | 286
73 | CCOC(=O)c1ccc(NC(=O)NC2CN(C(=O)c3cccs3)c3ccc(C)cc3N(CC(=O)c3cccs3)C2=O)cc1 (stereo not given) | 244
74 | Cc1coc(Cc2ccc(N)cc2)n1 | 84 to 85
75 | COC(=O)c1cc(C(=O)OC)n(-c2ccc([N+](=O)[O-])cc2C(=O)c2ccccc2)n1 | 150 to 152
76 | Cc1cnc(N2CCNCC2)c2ccoc12 | 112
77 | Nc1nc(Cl)nc2c1ncn2C1OC(CO)C(O)C1F (stereo not given) | 225 to 226
78 | Cc1c(F)c(F)cc2c(=O)c(C(=O)O)cn(-c3cc(O)c(F)cc3F)c12 | 270 to 278

Row | Structure (SMILES) | melting point [°C]
79 | COC(=O)Cc1cc(O)n(C)n1 | 148
80 | Cc1ccc(-c2ccc(C=Cc3ccc(Cl)cc3)s2)s1 | 157 to 162
81 | CC(=O)OCC(=O)C1(O)CCC2C3CCC4=CC(=O)CCC4(C)C3CCC21C (stereo not given) | 236
82 | CC1(C2OCCO2)C=CC(C#N)=CC1 (stereo not given) | 70
83 | CC(=O)Nc1cc(O)cc(C(C)CCCc2ccccc2)c1 (stereo not given) | 128 to 130
84 | CCOC(=O)CNC(=O)c1c(Cl)c2cc(Oc3ccc(C(F)(F)F)cc3)ccc2n1-c1ccc(OC(C)C)cc1 | 80 to 81
85 | CN1CCC2(CC1)CNc1cc(Cl)ccc12 | 172 to 173
86 | CC(C)(C)OC(=O)c1ccc(NC2CCc3cc4nc(CO)[nH]c(=O)c4cc32)cc1 (racemic) | 265 to 266
87 | Cc1ccc(-n2cc(C(=O)O)c(=O)c3ccc(-c4ccncc4)cc32)cc1C | 301 to 303
88 | CC(C)(C#N)c1cc(CSc2ccc(O)c(Cl)c2)cc(Cn2cncn2)c1 | 131
89 | CCN(CC)C(=O)c1c(O)c(=O)cc(C)n1C | 128 to 130
90 | CC1(C)CC(=O)c2c(SCCO)sc(-c3ccccn3)c2C1 | 175 to 177
91 | CCC1=C(C#N)C(c2ccccc2OC)c2c[nH]nc2N1 (stereo not given) | 230 to 232
92 | COc1cc(-c2ccccc2Cl)c(Cl)cc1C(=O)N1Cc2ccc(C(=O)N(C)Cc3cccnc3)n2Cc2ccccc21 | 196 to 198
93 | COC(=O)NC1CN(C(=O)c2cc(OC)c(OC)c(OC)c2)CCN1C(=O)C1=Cc2cc(OC)c(OC)cc2CCC1 (stereo not given) | 143 to 145
94 | CC(C)(C)c1c(=O)o[n-][n+]1CCSC12CC3CC(CC(C3)C1)C2 | 55 to 56
95 | CCC(=O)N(Cc1cnc(Cl)s1)C(=N[N+](=O)[O-])NC | 89 to 90
96 | CN1CCN(c2cc(Cl)cc3c2c(=O)n(Cc2ccccc2Br)c(=O)n3Cc2ccccc2)CC1 | 91 to 93
97 | O=C1OCCC1Oc1ccc(C(F)(F)F)cc1[N+](=O)[O-] (stereo not given) | 128 to 129
98 | O=S1(=O)CCCN1Cc1ccncc1 | 82
99 | CN1CCC(=C2c3ccccc3CCc3ccc(C#N)cc32)CC1 | 152 to 154
100 | Cc1ccc(C(=O)OC(C)(C)C)cc1C=O | 53 to 55
